Assays:
Format in all cases: in vivo
[1] = tested on: diamondback moth (Plutella xylostella); assay: Insecticidal effect on diamondback moth (Test Example 1); settings: for Insecticidal effect, Test Example 1 / Insecticidal effect (Test Example 1), judged from mortality: diamondback moth; for Insecticidal effect on diamondback moth (Test Example 1), judged grade: mortality judged according to the criterion shown in Test Example 1; for Insecticidal effect (Test Example 1), judged from mortality: judged by the criterion of Test Example 1
Procedure, shortened: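 Oviposition by adults on Chinese cabbage seedling; immersion; air-dry; 25° C room. Count of hatched larvae at day 6 post-immersion → mortality → effect graded by criterion. Triplicate, 10 insects/group.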

[2] = tested on: common cutworm (Spodoptera Litura); assay: Insecticidal effect on common cutworm (Test Example 2); settings: 500 ppm, 25° C.; for Insecticidal effect, Test Example 2: cabbage leaf immersed; for Insecticidal effect, Test Example 2 / Insecticidal effect on common cutworm (Test Example 2), judged grade: eight days after inoculation; for Insecticidal effect on common cutworm (Test Example 2), judged grade / Insecticidal effect (Test Example 2), judged from mortality: cabbage leaf dip; for Insecticidal effect on common cutworm (Test Example 2), judged grade: second-instar larvae; for Insecticidal effect (Test Example 2), judged from mortality: 8 days after inoculation
Procedure, shortened: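 Insecticidal effect was rated from percent mortality of second-instar larvae exposed to air-dried treatment at 25° C for 8 days.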

[3] = tested on: rice leafroller (Cnaphalocrocis medinalis); assay: Insecticidal effect on rice leafroller (Test Example 3); settings: 500 ppm, 25° C., humidity 70%; for Insecticidal effect, Test Example 3: rice lamina immersed; for Insecticidal effect, Test Example 3 / Insecticidal effect on rice leafroller (Test Example 3), judged grade: four days after inoculation; for Insecticidal effect on rice leafroller (Test Example 3), judged grade / Insecticidal effect (Test Example 3), judged from mortality: rice lamina dip; for Insecticidal effect on rice leafroller (Test Example 3), judged grade: third-instar larvae; for Insecticidal effect (Test Example 3), judged from mortality: 4 days after inoculation
Procedure, shortened: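 Insecticidal effect is judged by a predefined criterion from dead/alive counts four days after infesting air-dried lamina with third-instar larvae, kept on moistened filter paper at 25° C, 70% humidity.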

[4] = mortality judged by criterion of Test Example 1
[5] = common cutworm second-instar larvae
[6] = rice leafroller third-instar larvae
[7] = second-instar larvae of common cutworm
[8] = third-instar larvae of rice leafroller
[9] = judged by the mortality criterion of Test Example 1

Cc1cc(OC(F)(F)F)ccc1NC(=O)c1cccc(C(F)(F)F)c1C(=O)NC(C)(C)C [compound 1230]
Insecticidal effect, Test Example 1 [1, 4]: A (100)
Insecticidal effect, Test Example 2 [2, 5]: A (100)
Insecticidal effect, Test Example 3 [3, 6]: A (100)

CC(C)NC(=O)c1cccc(F)c1C(=O)Nc1ccc(OC(F)F)cc1C(F)(F)F [compound 579]
Insecticidal effect on diamondback moth (Test Example 1), judged grade [1]: A (100)
Insecticidal effect on common cutworm (Test Example 2), judged grade [2]: A (100)
Insecticidal effect on rice leafroller (Test Example 3), judged grade [3]: A (100)

Cc1cc(C(F)(F)C(F)(F)F)ccc1NC(=O)c1cccc(Cl)c1C(=O)NC(C)(C)C#Cc1ccsc1 [compound 1628]
Insecticidal effect (Test Example 1), judged from mortality [1]: A (100)
Insecticidal effect (Test Example 2), judged from mortality [2, 7]: A (100)
Insecticidal effect (Test Example 3), judged from mortality [3, 8]: A (100)

Cc1cc(C(F)(F)C(F)(F)F)ccc1NC(=O)c1c(Cl)cccc1C(=O)NC(C)C [compound 223]
Insecticidal effect, Test Example 1 [1, 9]: A (100)
Insecticidal effect, Test Example 2 [2, 7]: A (100)
Insecticidal effect, Test Example 3 [3, 8]: A (100)

Cc1cc(C(F)(F)C(F)(F)F)ccc1NC(=O)c1cccc(Cl)c1C(=O)NCCCO [compound 1399]
Insecticidal effect, Test Example 1 [1, 4]: A (100)
Insecticidal effect, Test Example 2 [2, 5]: A (100)
Insecticidal effect, Test Example 3 [3, 6]: A (100)

Cc1cc(OC(F)(F)C(F)(F)c2ccccc2)ccc1NC(=O)c1cccc(Cl)c1C(=O)NC(C)C [compound 1087]
Insecticidal effect, Test Example 1 [1, 4]: A (100)
Insecticidal effect, Test Example 2 [2, 5]: A (100)
Insecticidal effect, Test Example 3 [3, 6]: A (100)

Cc1cc(C(F)(C(F)(F)F)C(F)(F)F)ccc1NC(=O)c1cccc(Cl)c1C(=O)NC(C)(C)C [compound 1038]
Insecticidal effect, Test Example 1 [1, 4]: A (100)
Insecticidal effect, Test Example 2 [2, 5]: A (100)
Insecticidal effect, Test Example 3 [3, 6]: A (100)

Cc1cc(Oc2ccc(C(F)(F)F)cc2Cl)ccc1NC(=O)c1cccc(F)c1C(=O)NC(C)C [compound 521]
Insecticidal effect on diamondback moth (Test Example 1), judged grade [1]: A (100)
Insecticidal effect on common cutworm (Test Example 2), judged grade [2]: A (100)
Insecticidal effect on rice leafroller (Test Example 3), judged grade [3]: A (100)

Cc1cc(OC(F)(F)C(F)(F)Br)ccc1NC(=O)c1cccc(F)c1C(=O)NC(C)C [compound 503]
Insecticidal effect on diamondback moth (Test Example 1), judged grade [1]: A (100)
Insecticidal effect on common cutworm (Test Example 2), judged grade [2]: B (99-90)
Insecticidal effect on rice leafroller (Test Example 3), judged grade [3]: A (100)

Cc1cc(C(F)(C(F)(F)F)C(F)(F)F)ccc1NC(=O)c1ccc(F)c(Cl)c1C(=O)NC(C)(C)C [compound 1263]
Insecticidal effect, Test Example 1 [1, 4]: A (100)
Insecticidal effect, Test Example 2 [2, 5]: A (100)
Insecticidal effect, Test Example 3 [3, 6]: A (100)

Cc1cc(OC(F)(F)C(F)(F)Br)ccc1NC(=O)c1cccc([N+](=O)[O-])c1C(=O)NC(C)C [compound 698]
Insecticidal effect on diamondback moth (Test Example 1), judged grade [1]: A (100)
Insecticidal effect on common cutworm (Test Example 2), judged grade [2]: B (99-90)
Insecticidal effect on rice leafroller (Test Example 3), judged grade [3]: A (100)

CC(C)NC(=O)c1cccc(I)c1C(=O)Nc1ccc(C(F)(F)C(F)(F)C(F)(F)F)cc1 [compound 417]
Insecticidal effect, Test Example 1 [1, 9]: A (100)
Insecticidal effect, Test Example 2 [2, 7]: A (100)
Insecticidal effect, Test Example 3 [3, 8]: A (100)

CC(C)NC(=O)c1c(Cl)cccc1C(=O)Nc1ccc2oc(C(F)(F)C(F)(F)C(F)(F)F)nc2c1 [compound 1638]
Insecticidal effect (Test Example 1), judged from mortality [1]: A (100)
Insecticidal effect (Test Example 2), judged from mortality [2, 7]: A (100)
Insecticidal effect (Test Example 3), judged from mortality [3, 8]: A (100)

Cc1cc(OC(F)(F)C(F)(Br)C(F)(F)F)ccc1NC(=O)c1c(F)cccc1C(=O)NC(C)C (stereo not drawn) [compound 569]
Insecticidal effect on diamondback moth (Test Example 1), judged grade [1]: A (100)
Insecticidal effect on common cutworm (Test Example 2), judged grade [2]: A (100)
Insecticidal effect on rice leafroller (Test Example 3), judged grade [3]: A (100)

Cc1cc(C(F)(F)C(F)(F)F)c(Cl)cc1NC(=O)c1cccc(I)c1C(=O)NC(C)C [compound 1653]
Insecticidal effect (Test Example 1), judged from mortality [1]: A (100)
Insecticidal effect (Test Example 2), judged from mortality [2, 7]: A (100)
Insecticidal effect (Test Example 3), judged from mortality [3, 8]: A (100)

Cc1cc(OC(F)(F)C(F)(Br)C(F)(F)F)ccc1NC(=O)c1cccc(F)c1C(=O)NC(C)C (stereo not drawn) [compound 516]
Insecticidal effect on diamondback moth (Test Example 1), judged grade [1]: A (100)
Insecticidal effect on common cutworm (Test Example 2), judged grade [2]: A (100)
Insecticidal effect on rice leafroller (Test Example 3), judged grade [3]: A (100)

Cc1cc(C(F)(C(F)(F)F)C(F)(F)F)ccc1NC(=O)c1cc(I)ccc1C(=O)NC(C)C [compound 1251]
Insecticidal effect, Test Example 1 [1, 4]: A (100)
Insecticidal effect, Test Example 2 [2, 5]: A (100)
Insecticidal effect, Test Example 3 [3, 6]: A (100)

Cc1c(NC(=O)c2c(F)cccc2C(=O)NC(C)C)cccc1OC(F)F [compound 558]
Insecticidal effect on diamondback moth (Test Example 1), judged grade [1]: A (100)
Insecticidal effect on common cutworm (Test Example 2), judged grade [2]: A (100)
Insecticidal effect on rice leafroller (Test Example 3), judged grade [3]: A (100)

Cc1cc(OC(F)(F)C(F)(F)Br)ccc1NC(=O)c1cccc(Cl)c1C(=O)NC(C)C [compound 144]
Insecticidal effect, Test Example 1 [1, 9]: A (100)
Insecticidal effect, Test Example 2 [2, 7]: A (100)
Insecticidal effect, Test Example 3 [3, 8]: A (100)

CCN(CC)C(=O)c1c(I)cccc1C(=O)Nc1ccc2c(c1)OC(F)(F)C(F)O2 (stereo not drawn) [compound 1167]
Insecticidal effect, Test Example 1 [1, 4]: A (100)
Insecticidal effect, Test Example 2 [2, 5]: A (100)
Insecticidal effect, Test Example 3 [3, 6]: A (100)

C#CCNC(=O)c1c(I)cccc1C(=O)Nc1ccc(C(F)(F)C(F)(F)F)cc1C [compound 989]
Insecticidal effect, Test Example 1 [1, 4]: A (100)
Insecticidal effect, Test Example 2 [2, 5]: A (100)
Insecticidal effect, Test Example 3 [3, 6]: A (100)

CCCNC(=O)c1c(F)cccc1C(=O)Nc1ccc(C(F)(F)C(F)(F)F)cc1F [compound 1512]
Insecticidal effect (Test Example 1), judged from mortality [1]: A (100)
Insecticidal effect (Test Example 2), judged from mortality [2, 7]: A (100)
Insecticidal effect (Test Example 3), judged from mortality [3, 8]: A (100)

CC(C)NC(=O)c1c(I)cccc1C(=O)Nc1ccc(I)cc1 [compound 347]
Insecticidal effect, Test Example 1 [1, 9]: A (100)
Insecticidal effect, Test Example 2 [2, 7]: B (99-90)
Insecticidal effect, Test Example 3 [3, 8]: C (89-80)

Cc1cc(C(F)(F)C(F)(F)F)ccc1NC(=O)c1cccc(I)c1C(=O)NC(C)C(C)C (stereo not drawn) [compound 1033]
Insecticidal effect, Test Example 1 [1, 4]: A (100)
Insecticidal effect, Test Example 2 [2, 5]: A (100)
Insecticidal effect, Test Example 3 [3, 6]: A (100)

CC(C)(C)NC(=O)c1c(I)cccc1C(=O)Nc1ccc2oc(C(F)(F)C(F)(F)F)nc2c1 [compound 1143]
Insecticidal effect, Test Example 1 [1, 4]: A (100)
Insecticidal effect, Test Example 2 [2, 5]: C (89-80)
Insecticidal effect, Test Example 3 [3, 6]: A (100)

CC(C)NC(=O)c1c(I)cccc1C(=O)Nc1ccc(SC(F)(F)F)cc1 [compound 998]
Insecticidal effect, Test Example 1 [1, 4]: A (100)
Insecticidal effect, Test Example 2 [2, 5]: A (100)
Insecticidal effect, Test Example 3 [3, 6]: A (100)

CC(C)NC(=O)c1ccccc1C(=O)Nc1ccc(OC(F)(F)C(F)OC(F)(F)C(F)(F)C(F)(F)F)cc1 (stereo not drawn) [compound 30]
Insecticidal effect, Test Example 1 [1, 9]: A (100)
Insecticidal effect, Test Example 2 [2, 7]: A (100)
Insecticidal effect, Test Example 3 [3, 8]: A (100)

CC(C)NC(=O)c1c(I)cccc1C(=O)Nc1ccc(OC(F)F)c(C(F)(F)F)c1 [compound 410]
Insecticidal effect, Test Example 1 [1, 9]: A (100)
Insecticidal effect, Test Example 2 [2, 7]: A (100)
Insecticidal effect, Test Example 3 [3, 8]: A (100)

Cc1cc(C(F)(F)C(F)(F)C(F)(F)F)ccc1NC(=O)c1cccc([N+](=O)[O-])c1C(=O)NC(C)C [compound 684]
Insecticidal effect on diamondback moth (Test Example 1), judged grade [1]: A (100)
Insecticidal effect on common cutworm (Test Example 2), judged grade [2]: A (100)
Insecticidal effect on rice leafroller (Test Example 3), judged grade [3]: A (100)

Cc1cc(C(F)(F)C(F)(F)F)ccc1NC(=O)c1cccc(Cl)c1C(=O)NC(C)(C)/C=C/c1ccccc1 [compound 1604]
Insecticidal effect (Test Example 1), judged from mortality [1]: A (100)
Insecticidal effect (Test Example 2), judged from mortality [2, 7]: A (100)
Insecticidal effect (Test Example 3), judged from mortality [3, 8]: A (100)

Source: patent US6362369B1, “Phthalic acid diamide derivatives fluorine-containing aniline compounds as starting material, agricultural and horticultural insecticides, and a method for application of the insecticides” (Nihon Nohyaku Co., Ltd., priority 1997, dated 2002)
